Data set [1] is described as follows: Ussing chamber drug transport across adult intestinal tissue. The note with it: human.
Data set [2] has as its system adult terminal ileum tissue. Described as above. The settings on record: adult, M > S (mucosal to serosal).
The test system of data set [3] is jejunum. The note with it: mucosal to serosal direction, cited from earlier work.
Data set [4] can be described thus: Ussing chamber drug transport across pediatric intestinal tissue. The note with it: human.
The conditions of data set [5]: human in vivo; cited from earlier work.
Where [6] appears, read: Papp, estimated marginal mean ± SE, adult, M > S (mucosal to serosal), mixed model.
Where [7] appears, read: Papp, estimated marginal mean ± SE, adult, S > M (serosal to mucosal), mixed model.
The mark [8] stands for this setting: Papp, mean ± SD, adult, M > S (mucosal to serosal).
Where [9] appears, read: Papp, mean ± SD, adult, S > M (serosal to mucosal).
Where [10] appears, read: adult jejunum, ref Michiba et al., 2021 [19].
The mark [11] stands for this setting: Papp, estimated marginal mean ± SE, pediatric, M > S (mucosal to serosal), mixed model.
Where [12] appears, read: Papp, estimated marginal mean ± SE, pediatric, S > M (serosal to mucosal), mixed model.
The mark [13] stands for this setting: Papp, mean ± SD, pediatric, M > S (mucosal to serosal).
Setting [14] is: Papp, mean ± SD, pediatric, S > M (serosal to mucosal).

Molecules are shown by their SMILES. Where two headings read alike, the source gives them in different places.

As usually defined, the Papp is a coefficient for how fast a substance crosses the barrier. With `CC(C)NCC(O)COc1cccc2ccccc12` (stereo not shown) [Propranolol], the Papp was 12 ± 1.28 ×10⁻⁶ cm/s in data set [1] (setting [6]); 10.3 ± 1.27 ×10⁻⁶ cm/s in data set [1] (setting [7]); 12.4 ± 6.2 ×10⁻⁶ cm/s in data set [1] (setting [8]); 10.7 ± 5.02 ×10⁻⁶ cm/s in data set [1] (setting [9]); 7.8 ± 4.6 × 10^−6 cm/s in data set [3] (setting [10]); 7.98 ± 1.45 ×10⁻⁶ cm/s in data set [4] (setting [11]). For the same molecule, the Papp in data set [4] (setting [12]) was 7.74 ± 1.47 ×10⁻⁶ cm/s; in data set [4] (setting [13]), 7.49 ± 4.58 ×10⁻⁶ cm/s; in data set [4] (setting [14]), 8.27 ± 4.7 ×10⁻⁶ cm/s. For the same molecule, the “Papp, mean ± SD” value in data set [2] is 12.38 ± 6.15 ×10^–6 cm/s.
A word on the efflux ratio: it is a quotient of directional permeabilities that is used to spot active efflux. Turning to `CC(C)c1nc(N(C)S(C)(=O)=O)nc(-c2ccc(F)cc2)c1/C=C/[C@@H](O)C[C@@H](O)CC(=O)O` [Rosuvastatin], the efflux ratio in data set [1] stood at 2.1 ± 1; in data set [4] it was 1.3 ± 0.6. Further, the Papp in data set [1] (setting [6]) is 6.32 ± 0.97 ×10⁻⁶ cm/s; in data set [1] (setting [7]), 11.2 ± 0.91 ×10⁻⁶ cm/s; in data set [1] (setting [8]), 6.3 ± 2.8 ×10⁻⁶ cm/s; in data set [1] (setting [9]), 11.2 ± 5.49 ×10⁻⁶ cm/s; in data set [3] (setting [10]), 1.6 ± 0.6 × 10^−6 cm/s; in data set [3] (jejunum, ref Sjoberg et al., 2013 [17]), 7.0 ± 1.0 × 10^−6 cm/s. For the same molecule, the Papp in data set [4] (setting [11]) was 3.8 ± 0.88 ×10⁻⁶ cm/s; in data set [4] (setting [12]), 7.53 ± 1 ×10⁻⁶ cm/s; in data set [4] (setting [13]), 4.73 ± 2.04 ×10⁻⁶ cm/s; in data set [4] (setting [14]), 7.53 ± 3.66 ×10⁻⁶ cm/s. Besides, the Papp at 4 µM in data set [1] (setting [9]) was 11.2 ± 5.5 ×10⁻⁶ cm/s; in data set [4] (setting [14]), 7.5 ± 3.7 ×10⁻⁶ cm/s. In addition, in data set [5], the fraction absorbed is recorded as 50%.

Source of the values: article PMC9579398 (Clinical and Translational Science, 2022).
